Measurements published in patent US8822519B2, “Compound with agitation effect on peroxisome proliferator-activated receptor process for its preparation and use thereof” (Zhejiang Hisun Pharmaceutical Co., Ltd., priority 2008, dated 2014).

Key:
[1] = test system: Macaca rhesus model of hyperlipidemia; assay: Macaca rhesus model of hyperlipidemia, hematological indicators and ELISA; format: in vivo; settings: three months of administration
From the text: Afterwards, efficacy of the medicament of the A-3 was confirmed in the Macaca rhesus model of hyperlipidemia. After three months of administration, blood samples were taken from the femoral vein for the determination of hematological indicators, and the determination of the insulin, apolipoprotein A-1 (apoA-1) and apolipoprotein B-100 (apoB-100) by ELISA.

[2] = test system: high fat fodder obese C57BL/6J mice; assay: High fat fodder obese mice: levels of blood lipid and blood glucose; format: in vivo; parameters: HDL / GLU / TC / TG: unit not given here; settings: for GLU / HDL / TC / TG: mean ± s, n 5
From the text: 3 week-old male C57BL/6J mice were chosen as experiment animals, 15 of which were randomly selected to feed with a standard fodder, and the remains were allowed to feed with a high fat fodder, with each of the mice being marked by ear-cutting. The body weights and fodder intake of the mice were weighed every week. […] […], the effects of the medicaments on the levels of blood lipid and blood glucose, body weight, and fodder intake in the animals were observed, while a glucose tolerance test was performed to investigate the effects of the medicaments on the glucose tolerance in the animals.

[3] = test system: high fat fodder obese C57BL/6J mice; assay: High fat fodder obese mice: body weight and food intake; format: in vivo
From the text: (§1) 3 week-old male C57BL/6J mice were chosen as experiment animals, 15 of which were randomly selected to feed with a standard fodder, and the remains were allowed to feed with a high fat fodder, with each of the mice being marked by ear-cutting. The body weights and fodder intake of the mice were weighed every week. […] After the administration of the inventive compounds for four weeks, the effects of the medicaments on the levels of blood lipid and blood glucose, body weight, and fodder intake in the animals were observed, while a glucose tolerance test was performed to investigate the effects of the medicaments on the glucose tolerance in the animals.

[4] = test system: high fat fodder obese C57BL/6J mice; assay: Oral glucose tolerance test in obese mice; format: in vivo; settings: FIG. 2, in words
Procedure: The abscissa represents blood-sampling time points, 0 min, 30 min, 60 min, 120 min after orally given with glucose; the ordinate represents the corresponding blood glucose level (mmol/L).
as §1

[5] = Pharmacokinetics: plasma concentration-time curve; format: in vivo; settings: SD rats, gastric lavage, 50, 10 and 2 mg/kg
Procedure: The dosing volume was 10 ml/kg, and blood samples of 0.4-0.5 ml were taken from the vena orbitalis posterior of the waken animals at different time points post-gastric lavage and centrifuged at 5000 rpm for 10 min. 200 μL of plasma sample was precisely measured, then supplemented with 200 μL acetonitrile, vortexed to evenness, left stand for 5 min, and centrifuged (14000 rpm, 5 min). The supernatant was collected and then centrifuged again (14000 rpm, 5 min). The resulting supernatant was gathered and subjected to HPLC injection. Time points for blood sampling were respectively: 0, 0.5, 1, 2, 4, 6, 8, 10, 12, 24, 36, 48 and 72 h, and the peak area for each time point was the average of those obtained from 6 rats at the same time point. Plasma concentrations were calculated and the medicament concentration-time curve was plotted.

Tissue distribution = format: in vivo, SD rats; settings: distribution in organs, SD rats, 10 mg/kg
Procedure: 18 of SD rats were fasting for 16 h with free access for water, assigned them into 3 groups with 6 animals/group with a female-to-male ratio of 1:1; they were dosed with HS060098 (10 mg/kg), then the animals were sacrificed at 1, 10, and 24 h after dosing, and the heart, liver, spleen, lung, kidney in each animal were removed rapidly. The tainted blood on the surface of the organ was washed off immediately with physiological saline. The tissue from the organ was dissected apart, washed thoroughly, blotted off, weighed, supplemented with physiological saline at 400 mg/ml, homogenized in an ice bath for 1 min, and centrifuged at 3750 rpm for 20 min. 400 μl of the supernatant was pipetted precisely, followed by addition of 40 μl of an inner standard (HS060001 used as the inner standard with a molar concentration of 5 mmol/L), diluted with 3 ml of purified water, vortexed to homogeneity, and loaded onto a column (SPE C18 column was firstly washed with 3 ml of purified water, and sequentially with 3 ml of 10% methanol for activation). The column was rinsed with 3 ml of purified water at 1 ml/min, and then eluted with 3 ml of a elutant (methanol: purified water=9:1). The eluate was collected and blow-dried under a nitrogen flow at 45° C. The residue was dissolved in 400 μl of acetonitrile and then a HPLC insert was placed and followed by injection of the sample.

[6] = vs hyperlipidemia model control group
[7] = 2 weeks administration, 3.3 mg/kg
[8] = 2 weeks administration, 10 mg/kg
[9] = 4 weeks administration, 3.3 mg/kg
[10] = 4 weeks administration, 10 mg/kg

Q: For “2-(3-methyl-4-(1-(3-(4-methyl-5-oxo-1-(4-trifluoromethyl-phenyl)-4,5-dihydrogen-1H-1,2,4-triazolyl))-benzyloxy)-phenylthio)-acetic acid [Compound A-3]”, which “concentration of apoA-1” value ([1]; ELISA, in words) is on record?
A: significantly increased

Q: And the “concentration of apoB-100” value ([1]; ELISA, in words)?
A: significantly decreased

Q: What about the insulin concentration ([1]; ELISA, in words) of the same substance?
A: significantly decreased

Q: And the “high density lipoprotein (HDLc) increased” value [1, 6]?
A: 67%

Q: What about the “low density lipoprotein (LDLc) decreased” value [1, 6] of the same substance?
A: 38%

Q: And the “serum total cholesterol (TC) decreased” value [1, 6]?
A: 45%

Q: And the GLU [2, 7]?
A: 9.52 ± 1.71

Q: And the HDL [2, 7]?
A: 3.31 ± 0.21

Q: And the TC [2, 7]?
A: 3.25 ± 2.76

Q: What about the TG [2, 7] of the same substance?
A: 0.19 ± 0.12

Q: What about the GLU [2, 8] of the same substance?
A: 6.54 ± 1.04

Q: And the HDL [2, 8]?
A: 2.94 ± 1.42

Q: What about the TC [2, 8] of the same substance?
A: 5.12 ± 0.65

Q: And the TG [2, 8]?
A: 0.18 ± 0.02

Q: And the GLU [2, 9]?
A: 9.54 ± 0.71

Q: And the HDL [2, 9]?
A: 3.1 ± 0.59

Q: And the TC [2, 9]?
A: 5.11 ± 0.31

Q: And the TG [2, 9]?
A: 0.07 ± 0.01

Q: What about the GLU [2, 10] of the same substance?
A: 6.6 ± 1.15

Q: What about the HDL [2, 10] of the same substance?
A: 2.89 ± 0.28

Q: What about the TC [2, 10] of the same substance?
A: 4.75 ± 0.57

Q: What about the TG [2, 10] of the same substance?
A: 0.11 ± 0.07

Q: And the “levels of TG and GLU in the sera from the model animals” value ([2]; in words)?
A: significantly decrease

Q: What about the Food intake ([3]; column 1, 3.3 mg/kg) of the same substance?
A: 5.22 g

Q: What about the Food intake ([3]; column 1, 10 mg/kg) of the same substance?
A: 5.46 g

Q: What about the Food intake ([3]; column 2, 3.3 mg/kg) of the same substance?
A: 5.04 g

Q: And the Food intake ([3]; column 2, 10 mg/kg)?
A: 4.84 g

Q: What about the Food intake ([3]; column 3, 3.3 mg/kg) of the same substance?
A: 6.06 g

Q: What about the Food intake ([3]; column 3, 10 mg/kg) of the same substance?
A: 4.94 g

Q: And the Food intake ([3]; column 4, 3.3 mg/kg)?
A: 5.1 g

Q: And the Food intake ([3]; column 4, 10 mg/kg)?
A: 5.28 g

Q: And the Food intake ([3]; column 5, 3.3 mg/kg)?
A: 6.275 g

Q: What about the Food intake ([3]; column 5, 10 mg/kg) of the same substance?
A: 6.9 g

Q: What about the “effect on the food intake of the animals” value ([3]; in words) of the same substance?
A: no significant effect

Q: And the “body weight of the animals” value ([3]; in words, Table 4 and FIG. 1)?
A: significantly decrease

Q: What about the “glucose tolerance in the obese animals” value [4] of the same substance?
A: significantly improve the glucose tolerance

Q: And the bioavailability [5]?
A: 86%

Q: What about the Heart (Tissue distribution) of the same substance?
A: 26%

Q: And the Kidney (Tissue distribution)?
A: 9%

Q: And the Liver (Tissue distribution)?
A: 36%

Q: And the Lung (Tissue distribution)?
A: 16%

Q: What about the Spleen (Tissue distribution) of the same substance?
A: 13%
